Reference: patent US20250090695A1, “IMMUNOSTIMULANT-CYTOTOXIC CONJUGATE COMPOSITION AND METHODS FOR CANCER TREATMENT” (The Research Foundation for the State University of New York, priority 2022, published 2025)

How the values were obtained:
[1] = Biodistribution in a syngeneic model of prostate cancer with a RM1-PGLS tumor; settings: C57BL/6J mice
PSMA = molecular target: T1, PSMA (Homo sapiens, UniProt Q04609); settings: clinical trials; cited from earlier work
T1 construct: This has been leveraged in clinical trials using the radiotherapeutic 117Lu-PSMA-617; host or cells: tumours of prostate cancer patients
T1 sequence (Q04609 whole entry): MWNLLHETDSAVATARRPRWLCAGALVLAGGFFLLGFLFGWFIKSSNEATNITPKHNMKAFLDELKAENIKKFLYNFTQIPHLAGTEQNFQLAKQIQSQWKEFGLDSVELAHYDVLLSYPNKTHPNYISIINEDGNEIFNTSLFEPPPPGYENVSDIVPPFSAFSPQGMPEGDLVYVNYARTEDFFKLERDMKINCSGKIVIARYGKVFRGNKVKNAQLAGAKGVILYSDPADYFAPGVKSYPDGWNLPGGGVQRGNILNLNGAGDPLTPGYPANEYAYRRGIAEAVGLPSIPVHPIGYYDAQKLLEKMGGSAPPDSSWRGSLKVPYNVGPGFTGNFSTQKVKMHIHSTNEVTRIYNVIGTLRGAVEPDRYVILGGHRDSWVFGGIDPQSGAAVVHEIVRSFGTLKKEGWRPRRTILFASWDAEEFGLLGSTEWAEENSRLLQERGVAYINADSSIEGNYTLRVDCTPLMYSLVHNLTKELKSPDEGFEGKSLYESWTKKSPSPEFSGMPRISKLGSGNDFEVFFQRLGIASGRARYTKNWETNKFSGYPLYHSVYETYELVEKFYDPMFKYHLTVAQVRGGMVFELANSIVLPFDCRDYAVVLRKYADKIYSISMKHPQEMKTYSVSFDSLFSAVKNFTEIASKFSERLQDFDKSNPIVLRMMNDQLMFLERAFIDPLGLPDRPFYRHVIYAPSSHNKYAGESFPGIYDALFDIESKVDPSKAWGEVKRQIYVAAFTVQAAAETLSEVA

[2] = OLINDA dosimetry to adult male from mouse biodistribution
[3] = test system: CD8+ and CD4+ T-cell populations; test: T-cell population analysis in spleen and tumor of RM1-PGLS bearing mice; assay type: in vivo; parameters: unit not given here; settings: RM1-PGLS bearing C57BL/6J mice
Experimental: FIG. 12A-12B show graphical representations of T-cell population analysis measuring cell viability in the spleen (FIG. 12A). and in the tumor (FIG. 12B) in vivo for subjects having RM1-PGLS tumors with either an experimental ^177Lu-RIMS compound, or a control compound selected from: ^177Lu-PSMA-617, unlabeled Lu-RIMS, or a control vehicle.
^177Lu-RIMS-1 and control compounds were evaluated for immune cell recruitment.

O=C([O-])CN1CCN(CC(=O)[O-])CCN(CC(=O)NCC2CCC(C(=O)N[C@@H](Cc3ccc4ccccc4c3)C(=O)NCCCC[C@H](NC(=O)N[C@@H](CCC(=O)O)C(=O)O)C(=O)O)CC2)CCN(CC(=O)[O-])CC1.[177Lu+3] (stereo partly shown) [^177Lu-PSMA-617]
Biodistribution Muscle (% ID/g ± SD) ([1]; 2 h): 0.05 ± 0.05 % ID/g
Biodistribution RM1-PGLS tumor (% ID/g ± SD) ([1]; 2 h): 0.80 ± 0.18 % ID/g
Biodistribution Sm Int (% ID/g ± SD) ([1]; 2 h): 0.03 ± 0.01 % ID/g
Biodistribution Spleen (% ID/g ± SD) ([1]; 2 h): 0.08 ± 0.03 % ID/g
Biodistribution Blood (% ID/g ± SD) ([1]; 24 h): 0.00 ± 0.00 % ID/g
Biodistribution Bone (% ID/g ± SD) ([1]; 24 h): 0.01 ± 0.01 % ID/g
Biodistribution Heart (% ID/g ± SD) ([1]; 24 h): 0.01 ± 0.00 % ID/g
Biodistribution Kidney (% ID/g ± SD) ([1]; 24 h): 0.09 ± 0.07 % ID/g
Biodistribution Liver (% ID/g ± SD) ([1]; 24 h): 0.02 ± 0.01 % ID/g
Biodistribution Muscle (% ID/g ± SD) ([1]; 24 h): 0.01 ± 0.01 % ID/g
Biodistribution RM1-PGLS tumor (% ID/g ± SD) ([1]; 24 h): 0.25 ± 0.09 % ID/g
Biodistribution Sm Int (% ID/g ± SD) ([1]; 24 h): 0.01 ± 0.01 % ID/g
Biodistribution Spleen (% ID/g ± SD) ([1]; 24 h): 0.02 ± 0.01 % ID/g
Biodistribution Blood (% ID/g ± SD) ([1]; 72 h): 0.01 ± 0.01 % ID/g
Biodistribution Bone (% ID/g ± SD) ([1]; 72 h): 0.01 ± 0.01 % ID/g
Biodistribution Heart (% ID/g ± SD) ([1]; 72 h): 0.01 ± 0.00 % ID/g
Biodistribution Kidney (% ID/g ± SD) ([1]; 72 h): 0.04 ± 0.01 % ID/g
Biodistribution Liver (% ID/g ± SD) ([1]; 72 h): 0.02 ± 0.01 % ID/g
Biodistribution Muscle (% ID/g ± SD) ([1]; 72 h): 0.01 ± 0.00 % ID/g
Biodistribution RM1-PGLS tumor (% ID/g ± SD) ([1]; 72 h): 0.18 ± 0.06 % ID/g
Biodistribution Sm Int (% ID/g ± SD) ([1]; 72 h): 0.02 ± 0.01 % ID/g
Biodistribution Spleen (% ID/g ± SD) ([1]; 72 h): 0.02 ± 0.01 % ID/g
Non-responders among patients (PSMA): 30%
OLINDA dosimetry to Adult Male, Adrenals ([2]; Target Organ Adrenals): 1.32 μSv/MBq
OLINDA dosimetry to Adult Male, Brain ([2]; Target Organ Brain): 0.00 μSv/MBq
OLINDA dosimetry to Adult Male, Esophagus ([2]; Target Organ Esophagus): 0.25 μSv/MBq
OLINDA dosimetry to Adult Male, Eyes ([2]; Target Organ Eyes): 0.00 μSv/MBq
OLINDA dosimetry to Adult Male, Gallbladder Wall ([2]; Target Organ Gallbladder Wall): 0.93 μSv/MBq
OLINDA dosimetry to Adult Male, Heart Wall ([2]; Target Organ Heart Wall): 1.57 μSv/MBq
OLINDA dosimetry to Adult Male, Kidneys ([2]; Target Organ Kidneys): 54.70 μSv/MBq
OLINDA dosimetry to Adult Male, Left Colon ([2]; Target Organ Left Colon): 0.18 μSv/MBq
OLINDA dosimetry to Adult Male, Liver ([2]; Target Organ Liver): 27.80 μSv/MBq
OLINDA dosimetry to Adult Male, Lungs ([2]; Target Organ Lungs): 2.43 μSv/MBq
OLINDA dosimetry to Adult Male, Osteogenic Cells ([2]; Target Organ Osteogenic Cells): 0.83 μSv/MBq
OLINDA dosimetry to Adult Male, Pancreas ([2]; Target Organ Pancreas): 0.32 μSv/MBq
OLINDA dosimetry to Adult Male, Prostate ([2]; Target Organ Prostate): 0.10 μSv/MBq
OLINDA dosimetry to Adult Male, Rectum ([2]; Target Organ Rectum): 0.07 μSv/MBq
OLINDA dosimetry to Adult Male, Red Marrow ([2]; Target Organ Red Marrow): 0.10 μSv/MBq
OLINDA dosimetry to Adult Male, Right Colon ([2]; Target Organ Right Colon): 0.27 μSv/MBq
OLINDA dosimetry to Adult Male, Salivary Glands ([2]; Target Organ Salivary Glands): 0.01 μSv/MBq
OLINDA dosimetry to Adult Male, Small Intestine ([2]; Target Organ Small Intestine): 1.54 μSv/MBq
OLINDA dosimetry to Adult Male, Spleen ([2]; Target Organ Spleen): 0.25 μSv/MBq
OLINDA dosimetry to Adult Male, Stomach Wall ([2]; Target Organ Stomach Wall): 0.23 μSv/MBq
OLINDA dosimetry to Adult Male, Thymus ([2]; Target Organ Thymus): 0.11 μSv/MBq
OLINDA dosimetry to Adult Male, Thyroid ([2]; Target Organ Thyroid): 0.05 μSv/MBq
OLINDA dosimetry to Adult Male, Today Body ([2]; Target Organ Total Body): 1.13 μSv/MBq
OLINDA dosimetry to Adult Male, Tumor ([2]; Target Organ Tumor): 145.00 μSv/MBq
OLINDA dosimetry to Adult Male, Urinary Bladder Wall ([2]; Target Organ Urinary Bladder Wall): 7.66 μSv/MBq
Total CD4+ T-cell population ([3]; Spleen): 12.73 ± 2.17
Total CD8+ T-cell population ([3]; Spleen): 8.78 ± 1.61
Total CD4+ T-cell population ([3]; Tumor): 1.47 ± 0.59
Total CD8+ T-cell population ([3]; Tumor): 4.76 ± 1.40
